# From US20090131258A1, “HERBICIDE COMPOSITIONS FOR UPLAND FARMING AND CONTROL METHOD” (priority 2004, published 2009)
# Read-outs that look alike come from different tables or passages of the source.
# Experiments:
# Format in all cases: in vivo
# [1] = test system: Alopecurus myosuroides Huds.; assay: Foliar application test on Alopecurus myosuroides Huds. in upland field condition; settings: 672 h, fresh weight day 28, read-out: Inhibitory rate (%); for inhibition at 1000 g/ha: dose 1000 g a.i./ha; for inhibition at 2000 g/ha: dose 2000 g a.i./ha
# Text: Next, Test Examples of the herbicide compositions according to the invention will be presented. In the following Test Examples, the ingredient (A) was mixed with the ingredient (B), (C), (D), (E) or (F) in practice. As a result, an effect exceeding the effect expected from the effects achieved by using the individual ingredients solely (i.e., a synergistic effect) was observed. The term “synergistic effect” means the effect achieved in the case where the effect achieved by two or more chemicals acting simultaneously exceeds the additive effect expected from the activities of the respective chemicals used solely. The activity expected by using a specific combination of two herbicides (hereinafter called “expectation”) can be calculated in accordance with the following Colby's formula (refer to Colby, S. R., Weeds, 15, p. 20 to 22 (1967)).
# (§1) E=X+Y−(X×Y/100) Numerical formula 1
# (§2) (In the above formula, E represents an inhibitory rate expected in the case of applying a mixture of p kg/ha of a herbicide A and q kg/ha of another herbicide B. X represents the inhibitory rate achieved by the application of p kg/ha of the herbicide A. Y represents the inhibitory rate achieved by the application of q kg/ha of the herbicide B.)
# (§3) When the effect achieved by the mix application in practice exceeds the value E, the combination can be regarded as achieving a synergistic effect. Inhibitory rate was determined in accordance with the following numerical formula 2.
# (§4) Inhibitory rate(%)=(1−fresh weight in treated lot/fresh weight in untreated lot)×100 Numerical formula 2
# A resin vat having an area of 200 cm^2 was filled with upland soil that was diluvial clay loam soil. After fertilization, Alopecurus myosuroides Huds. was sowed and the seeds were evenly covered with the soil. Then, the plants were grown under controlled conditions in a greenhouse. When the test weeds grew to the 2.0 to 2.5 leaf stage, each herbicide having been diluted at a definite concentration and mixed was uniformly sprayed to the foliage with a small-sized high pressure sprayer. The preparation containing the ingredient (A) alone was prepared in accordance with Formulation Example 1 but adding diatomaceous earth to compensate for the decrease in the ingredient (B), (C) or (F). As the preparations respectively containing the ingredients (B) and (C) alone, marketed flowables were employed. As the preparation containing the ingredient (F) alone, a marketed emulsifiable concentrate was employed. The mixed preparations were prepared by mixing the same. Then, the plants were grown under controlled conditions in the greenhouse. On the day 28 after the application, the fresh weight of the above-ground part of each weed was measured and the inhibitory rate (%) was determined in accordance with Numerical Formula 2 and the expectation was calculated in accordance with Numerical Formula 1, Tables 2 and 3 show the results.
# [2] = test system: Matricaria inodora L.; assay: Foliar application test on Matricaria inodora L. in upland field condition; settings: day 28
# Text: (§5) Next, Test Examples of the herbicide compositions according to the invention will be presented. In the following Test Examples, the ingredient (A) was mixed with the ingredient (B), (C), (D), (E) or (F) in practice. […] The term “synergistic effect” means the effect achieved in the case where the effect achieved by two or more chemicals acting simultaneously exceeds the additive effect expected from the activities of the respective chemicals used solely.
# as §1, §2, §3, §4
# (§6) A resin vat having an area of 200 cm^2 was filled with upland soil that was diluvial clay loam soil. After fertilization, Stellaria media Villars and Matricaria inodora L. were sowed and the seeds were evenly covered with the soil. Then, the plants were grown under controlled conditions in a greenhouse. When the test weeds grew to the 2.0 to 2.5 leaf stage, each herbicide having been diluted at a definite concentration and mixed was uniformly sprayed to the foliage with a small-sized high pressure sprayer. […] As the preparation containing the ingredient (D) alone, marketed wettable granules were employed. As the preparation containing the ingredient (E) alone, a marketed flowable was employed. The mixed preparations were prepared by mixing the same. Then, the plants were grown under controlled conditions in the greenhouse.
# [3] = test system: Stellaria media Villars; assay: Foliar application test on Stellaria media Villars in upland field condition; settings: day 28
# Text: as §5, §1, §2, §3, §4, §6
# [4] = Table 4, single ingredient, dose 5 g a.i./ha
# [5] = Table 4, single ingredient, dose 10 g a.i./ha
# [6] = Table 5, single ingredient, dose 2 g a.i./ha
# [7] = Table 5, single ingredient, dose 4 g a.i./ha
compound,measurement,setting,value
"CC(C)c1ccc(NC(=O)N(C)C)cc1 [(B), isoproturon]",inhibition at 1000 g/ha,"[1]; Table 2, single ingredient",69%
same,inhibition at 2000 g/ha,"[1]; Table 2, single ingredient",90%
"CCC(CC)Nc1c([N+](=O)[O-])cc(C)c(C)c1[N+](=O)[O-] [(C), pendimethalin]",inhibition at 1000 g/ha,"[1]; Table 2, single ingredient",16%
same,inhibition at 2000 g/ha,"[1]; Table 2, single ingredient",22%
"COC(=O)c1ccc(C(F)(F)F)nc1S(=O)(=O)[N-]C(=O)Nc1nc(OC)cc(OC)n1.[Na+] [(D), sodium salt of flupyrsulfuron-methyl]",Inhibitory rate (%),[2]; [4],46%
same,Inhibitory rate (%),[2]; [5],67%
same,Inhibitory rate (%),[3]; [4],77%
same,Inhibitory rate (%),[3]; [5],85%
"COc1ncc(F)c2nc(S(=O)(=O)Nc3c(F)cccc3F)nn12 [(E), florasulam]",Inhibitory rate (%),[2]; [6],70%
same,Inhibitory rate (%),[2]; [7],80%
same,Inhibitory rate (%),[3]; [6],75%
same,Inhibitory rate (%),[3]; [7],90%
"CCCN(CCC)c1c([N+](=O)[O-])cc(C(F)(F)F)cc1[N+](=O)[O-] [(F), trifluralin]",inhibition at 1000 g/ha,"[1]; Table 3, single ingredient",55%
same,inhibition at 2000 g/ha,"[1]; Table 3, single ingredient",85%
